Experiments:
[1] = test system: lambsquarters; assay: Test Example 5: herbicidal effect by foliage application, plastic box (Table 20, symbol O); format: in vivo, lambsquarters (Chenopodium album); details: foliage application, 3 weeks after application
In short: (§1)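 Plants sown in sterilized diluvial soil and grown 14 days in a greenhouse at 25° C to 30° C, then sprayed on the foliage with the compound's emulsion diluted in water to a predetermined herbicide amount. Injury to weeds and crops scored three weeks after application on a visual rating scale.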

[2] = test system: windgrass; assay: Test Example 5: herbicidal effect by foliage application, plastic box (Table 20, symbol L); format: in vivo, windgrass (Apera spica-venti); details: foliage application, 3 weeks after application
In short: as §1

[3] = test system: barnyard grass; assay: Test Example 3: herbicidal effect by foliage application, Wagner pot (Table 18, symbol H); format: in vivo, barnyard grass (Echinochloa crus-galli)
In short: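 Plants were sown in alluvial soil held under 0.1–0.5 cm standing water and grown 14 days in a greenhouse at 25–30 °C. An emulsifiable formulation, water-diluted to the set dose, was then sprayed onto the foliage, and effects were scored three weeks later using previously defined criteria.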

[4] = test system: blackgrass; assay: Test Example 4: herbicidal effect by soil treatment (Table 19, symbol J); format: in vivo, blackgrass (Alopecurus myosuroides)
In short: (§2)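 Three weeks of greenhouse growth at 25° C. to 30° C. followed a uniform surface spray of water-diluted emulsion at a predetermined herbicide amount. Seeds had been sown beforehand under about 1.5 cm of sterilized diluvial soil. Grading followed criteria set out in an earlier test.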

[5] = test system: oval-leafed pondweed; assay: Test Example 2: herbicidal activity, application during weed generation under submerged conditions (Table 17, symbol C); format: in vivo, oval-leafed pondweed (Monochoria vaginalis); details: application during weed generation, submerged conditions
In short: (§3)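 In this pot test, flooded alluvial soil (water depth 4 cm) holds all three species sown as a mixture. Once seedlings have one to two leaves, the compound's emulsion, thinned with water to the intended dose, is poured on the water; grading follows after three weeks on the earlier criteria.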

[6] = test system: persian speedwell; assay: Test Example 4: herbicidal effect by soil treatment (Table 19, symbol R); format: in vivo, Persian speedwell (Veronica persica)
In short: as §2

[7] = test system: redroot pigweed; assay: Test Example 4: herbicidal effect by soil treatment (Table 19, symbol N); format: in vivo, redroot pigweed (Amaranthus retroflexus)
In short: as §2

[8] = test system: velvetleaf; assay: Test Example 4: herbicidal effect by soil treatment (Table 19, symbol M); format: in vivo, velvetleaf (Abutilon theophrasti)
In short: as §2

[9] = test system: Japanese bulrush; assay: Test Example 2: herbicidal activity, application during weed generation under submerged conditions (Table 17, symbol B); format: in vivo, Japanese bulrush (Schoenoplectus juncoides); details: application during weed generation, submerged conditions
In short: as §3

[10] = test system: green foxtail; assay: Test Example 4: herbicidal effect by soil treatment (Table 19, symbol G); format: in vivo, green foxtail (Setaria viridis)
In short: as §2

[11] = test system: barnyard grass; assay: Test Example 4: herbicidal effect by soil treatment (Table 19, symbol H); format: in vivo, barnyard grass (Echinochloa crus-galli)
In short: as §2

[12] = test system: southern crabgrass; assay: Test Example 5: herbicidal effect by foliage application, plastic box (Table 20, symbol F); format: in vivo, southern crabgrass (Digitaria ciliaris); details: foliage application, 3 weeks after application
In short: as §1

[13] = test system: oval-leafed pondweed; assay: Test Example 1: herbicidal activity, application before weed generation under submerged conditions (Table 16, symbol C); format: in vivo, oval-leafed pondweed (Monochoria vaginalis)
In short: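 Submerged Wagner pots (alluvial soil, 4 cm water) sown with weed seeds and planted with 2.5-leaf rice seedlings; emulsifiable concentrate diluted in water applied to water surface on sowing day. Held in greenhouse at 25-30 °C; injury scored 0-5 by herbicidal rate after three weeks.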

[14] = test system: persian speedwell; assay: Test Example 5: herbicidal effect by foliage application, plastic box (Table 20, symbol R); format: in vivo, Persian speedwell (Veronica persica); details: foliage application, 3 weeks after application
In short: as §1

| Structure (SMILES) | effect on lambsquarters (O) ([1]; 320 g/ha) | effect on windgrass (L) ([2]; 320 g/ha) | herbicidal effect on H (barnyard grass), rating 0-5 ([3]; 320 g/ha) | herbicidal effect rating, J: blackgrass ([4]; 320 g/ha) | herbicidal effect rating, C: oval-leafed pondweed ([5]; AAH 320 g/ha) | herbicidal effect rating, R: persian speedwell ([6]; 320 g/ha) | herbicidal effect rating, N: redroot pigweed ([7]; 320 g/ha) | herbicidal effect rating, M: velvetleaf ([8]; 320 g/ha) | herbicidal effect rating, B: Japanese bulrush ([9]; AAH 320 g/ha) | herbicidal effect rating, G: green foxtail ([10]; 320 g/ha) | herbicidal effect rating, H: barnyard grass ([11]; 320 g/ha) | effect on southern crabgrass (F) ([12]; 320 g/ha) | Herbicidal effect on C: oval-leafed pondweed (grade 0-5) ([13]; 320 g/ha applied herbicide) | effect on persian speedwell (R) ([14]; 320 g/ha) | further results |
| --- | --- | --- | --- | --- | --- | --- | --- | --- | --- | --- | --- | --- | --- | --- | --- |
| COc1ccc(-c2sc3ccc(F)cc3c2-c2c(O)c(C)nn(C)c2=O)cc1 [2-026] | 4 (Herbicidal rate of 70% or more and less than 90%) | 4 (Herbicidal rate of 70% or more and less than 90%) | 5 (Herbicidal rate of 90% or more (almost completely withered)) | 3 (Herbicidal rate of 40% or more and less than 70%) | 5 (Herbicidal rate of 90% or more (almost completely withered)) | 5 (Herbicidal rate of 90% or more (almost completely withered)) | 5 (Herbicidal rate of 90% or more (almost completely withered)) | 5 (Herbicidal rate of 90% or more (almost completely withered)) | 4 (Herbicidal rate of 70% or more and less than 90%) | 3 (Herbicidal rate of 40% or more and less than 70%) | 4 (Herbicidal rate of 70% or more and less than 90%) | 5 (Herbicidal rate of 90% or more (almost completely withered)) | 4 (Herbicidal rate of 70% or more and less than 90%) | 5 (Herbicidal rate of 90% or more (almost completely withered)) | – |
| CCCC(=O)Oc1c(C)nn(C)c(=O)c1-c1c(-c2ccccc2OCC)sc2ccc(F)cc12 [2-029] | – | – | – | – | – | – | – | – | – | – | – | – | – | – | effect on lambsquarters (O) ([1]; 266 g/ha): 3 (Herbicidal rate of 40% or more and less than 70%); effect on windgrass (L) ([2]; 266 g/ha): 1 (Herbicidal rate of 5% or more and less than 20%); herbicidal effect on H (barnyard grass), rating 0-5 ([3]; 266 g/ha): 5 (Herbicidal rate of 90% or more (almost completely withered)); herbicidal effect rating, J: blackgrass ([4]; 266 g/ha): 0 (Herbicidal rate of 5% or less (almost no effect)); herbicidal effect rating, C: oval-leafed pondweed ([5]; AAH 266 g/ha): 3 (Herbicidal rate of 40% or more and less than 70%); herbicidal effect rating, R: persian speedwell ([6]; 266 g/ha): 3 (Herbicidal rate of 40% or more and less than 70%); herbicidal effect rating, N: redroot pigweed ([7]; 266 g/ha): 4 (Herbicidal rate of 70% or more and less than 90%); herbicidal effect rating, M: velvetleaf ([8]; 266 g/ha): 0 (Herbicidal rate of 5% or less (almost no effect)); herbicidal effect rating, B: Japanese bulrush ([9]; AAH 266 g/ha): 2 (Herbicidal rate of 20% or more and less than 40%); herbicidal effect rating, G: green foxtail ([10]; 266 g/ha): 3 (Herbicidal rate of 40% or more and less than 70%); herbicidal effect rating, H: barnyard grass ([11]; 266 g/ha): 3 (Herbicidal rate of 40% or more and less than 70%); effect on southern crabgrass (F) ([12]; 266 g/ha): 4 (Herbicidal rate of 70% or more and less than 90%); Herbicidal effect on C: oval-leafed pondweed (grade 0-5) ([13]; 266 g/ha applied herbicide): 0 (Herbicidal rate of 5% or less (almost no effect)); effect on persian speedwell (R) ([14]; 266 g/ha): 5 (Herbicidal rate of 90% or more (almost completely withered)) |
| CCCOc1ccc(-c2sc3ccc(F)cc3c2-c2c(O)c(C)nn(C)c2=O)cc1 [2-032] | 5 (Herbicidal rate of 90% or more (almost completely withered)) | 4 (Herbicidal rate of 70% or more and less than 90%) | 5 (Herbicidal rate of 90% or more (almost completely withered)) | 0 (Herbicidal rate of 5% or less (almost no effect)) | 5 (Herbicidal rate of 90% or more (almost completely withered)) | 5 (Herbicidal rate of 90% or more (almost completely withered)) | 5 (Herbicidal rate of 90% or more (almost completely withered)) | 5 (Herbicidal rate of 90% or more (almost completely withered)) | 4 (Herbicidal rate of 70% or more and less than 90%) | 3 (Herbicidal rate of 40% or more and less than 70%) | 2 (Herbicidal rate of 20% or more and less than 40%) | 5 (Herbicidal rate of 90% or more (almost completely withered)) | 4 (Herbicidal rate of 70% or more and less than 90%) | 5 (Herbicidal rate of 90% or more (almost completely withered)) | – |
| Cc1nn(C)c(=O)c(-c2c(-c3ccc(OC(C)C)cc3)sc3ccc(F)cc23)c1O [2-034] | 5 (Herbicidal rate of 90% or more (almost completely withered)) | 4 (Herbicidal rate of 70% or more and less than 90%) | 5 (Herbicidal rate of 90% or more (almost completely withered)) | 1 (Herbicidal rate of 5% or more and less than 20%) | 3 (Herbicidal rate of 40% or more and less than 70%) | 4 (Herbicidal rate of 70% or more and less than 90%) | 5 (Herbicidal rate of 90% or more (almost completely withered)) | 4 (Herbicidal rate of 70% or more and less than 90%) | 3 (Herbicidal rate of 40% or more and less than 70%) | 4 (Herbicidal rate of 70% or more and less than 90%) | 2 (Herbicidal rate of 20% or more and less than 40%) | 5 (Herbicidal rate of 90% or more (almost completely withered)) | 2 (Herbicidal rate of 20% or more and less than 40%) | 5 (Herbicidal rate of 90% or more (almost completely withered)) | – |
| CCCCOc1ccc(-c2sc3ccc(F)cc3c2-c2c(O)c(C)nn(C)c2=O)cc1 [2-036] | 5 (Herbicidal rate of 90% or more (almost completely withered)) | 4 (Herbicidal rate of 70% or more and less than 90%) | 5 (Herbicidal rate of 90% or more (almost completely withered)) | 0 (Herbicidal rate of 5% or less (almost no effect)) | 3 (Herbicidal rate of 40% or more and less than 70%) | 4 (Herbicidal rate of 70% or more and less than 90%) | 5 (Herbicidal rate of 90% or more (almost completely withered)) | 4 (Herbicidal rate of 70% or more and less than 90%) | 3 (Herbicidal rate of 40% or more and less than 70%) | 0 (Herbicidal rate of 5% or less (almost no effect)) | 0 (Herbicidal rate of 5% or less (almost no effect)) | 4 (Herbicidal rate of 70% or more and less than 90%) | 4 (Herbicidal rate of 70% or more and less than 90%) | 5 (Herbicidal rate of 90% or more (almost completely withered)) | – |
| CCCC(=O)Oc1c(C)nn(C)c(=O)c1-c1c(-c2ccc(OC(F)(F)F)cc2)sc2ccc(F)cc12 [2-046] | 5 (Herbicidal rate of 90% or more (almost completely withered)) | 0 (Herbicidal rate of 5% or less (almost no effect)) | 5 (Herbicidal rate of 90% or more (almost completely withered)) | 0 (Herbicidal rate of 5% or less (almost no effect)) | 0 (Herbicidal rate of 5% or less (almost no effect)) | 5 (Herbicidal rate of 90% or more (almost completely withered)) | 4 (Herbicidal rate of 70% or more and less than 90%) | 3 (Herbicidal rate of 40% or more and less than 70%) | 3 (Herbicidal rate of 40% or more and less than 70%) | 4 (Herbicidal rate of 70% or more and less than 90%) | 3 (Herbicidal rate of 40% or more and less than 70%) | 0 (Herbicidal rate of 5% or less (almost no effect)) | 3 (Herbicidal rate of 40% or more and less than 70%) | 5 (Herbicidal rate of 90% or more (almost completely withered)) | – |
